Measured values reported in patent publication US12673056B2, “Oral formulation comprising a crystalline form of rabeximod” (Cyxone AB, priority 2020, dated 2026).

Experiments:
[1] = Particle size by laser diffractometry (Malvern Mastersizer) following micronisation; format: physicochemical; settings: for Feed particles % <10 μm: before micronisation; for % <10 μm / D(0.1) / D(0.5) / D(0.9): result after micronisation
Excerpt: In a still further embodiment the composition comprises rabeximod in the form of a dry powder, e.g. a micronized powder. The particle size distribution can be determined by means of laser diffractometry. In a preferred embodiment, a Malvern Instru-ments Mastersizer is used to determine the particle size distribution. Using a Malvern Mastersizer apparatus, volume-based size distribution parameters will typically be re-ported, e.g. in the form of the D10, D50 and D90 values. The average particle size (D50-value), which is also denoted D50-value of the integral volume distribution, is defined in the context of this invention as the particle diameter at which 50 percent by volume of the particles have a smaller diameter than the diameter which corresponds to the D50-value. Likewise, 50 percent by volume of the particles have a larger diameter than the D50-value. Analogously, the D90-value of the integral volume distribution is defined as the particle diameter at which 90 percent by volume of the particles have a smaller diameter than the diameter which corresponds to the D90-value. Corre-spondingly, the D10-value of the integral volume distribution is defined as the particle diameter at which 10 percent by volume of the particles have a smaller diameter than the diameter which corresponds to the D10-value. Typically, in accordance with the present invention, the Rabeximod (micronized) dry powder has a particle size characterized by a D10 within the range of 0.5-1.0 μm, a D50 within the range of 1.5-3.5 μm, and/or a D90 within the range of 5.5-9.9 μm, when measured using laser light diffractometry.
The micronisation operation is performed using a standard jet-mill. The set point for the particle size was that not less than 90% of the particles should be smaller than 10 μm. In-process samples were drawn and analyzed using a Malvern Mastersizer during the process to verify that a sufficient size reduction had been achieved (Malvern Mastersizer 2000 instrument, equipped with a Scirocco 2000(A) dispersion unit and a Micro Tray, operated at 2.5 bar, a feed rate of 60%, a measuring time of 5 seconds and a background time of 5 second; compliant with Ph.Fur method 2.9.31).
Results of the micronisation step in particle size is provided in Table 1 for Rabeximod drug substance batches.

healthy male volunteers = test: Phase 1 clinical trial: safety, tolerability, pharmacokinetics of single and multiple oral rising doses; format: in vivo, human
Excerpt: The Phase 1 study assessed the safety, tolerability, pharmacokinetics and pharmacodynamics of single and multiple oral rising doses of Rabeximod (in a capsule formulation as described in the preceding sections) in healthy male volunteers. The study also included an open-label, randomised, two-period crossover part that was designed to investigate the effect of food on the pharmacokinetics of Rabeximod. In total, 87 healthy male subjects were enrolled into the study.

[2] = test system: patients diagnosed with active RA; test: Phase II clinical trial in combination with stable dose of methotrexate; format: in vivo, human
Protocol: A total of 225 patients diagnosed with active RA based on the American Rheu-matism Association (ARA) revised criteria were randomized to receive one of the following treatments: • 6.25 mg of Rabeximod (daily) • 15 mg of Rabeximod (daily) • 37.5 mg of Rabeximod (daily) • Placebo
Study drug was provided in the form of a capsule comprising micronized rabeximod, as described in the preceding sections. Placebo was provided in the form of a capsule identical in appearance to the study drug formulation. In all treatment groups patients were required to continue taking a stable dose of methotrexate. Over 200 patients completed the study. During the study, safety, efficacy and pharmaco-kinetic/pharmacodynamic properties of the study drug formulation were assessed with appropriate tests.

Structure (SMILES): Cc1cc2nc3c4cc(Cl)ccc4n(CC(=O)NCCN(C)C)c3nc2cc1C [compound 153]
- Feed particles % <10 μm [1]: 32.7%
- % <10 μm [1]: 99.1%
- D(0.1) [1]: 0.6 μm
- D(0.5) [1]: 1.9 μm
- D(0.9) [1]: 5.7 μm

Structure (SMILES): Cc1cc2nc3c4cc(Cl)ccc4n(CC(=O)NCCN(C)C)c3nc2cc1C [262-2]
- Feed particles % <10 μm [1]: 32.6%
- % <10 μm [1]: 92.6%
- D(0.1) [1]: 0.7 μm
- D(0.5) [1]: 2.2 μm
- D(0.9) [1]: 7.6 μm

Structure (SMILES): Cc1cc2nc3c4cc(Cl)ccc4n(CC(=O)NCCN(C)C)c3nc2cc1C [Rabeximod, 9-Chloro-2,3-dimethyl-6-(N,N-dimethylaminoethylamino-2-oxoethyl)-6H-indolo-[2,3b]quinoxaline]
- time plasma concentrations measurable post dose (healthy male volunteers; on average, following repeated once daily dosing (Day 14)): up to 168 hours
- increase of systemic exposure (AUC0-t) with dose (healthy male volunteers; repeated once daily administration): trend was also noted
- increase of systemic exposure (AUC0-t) with dose (healthy male volunteers; single administration at 12.5 mg to 600 mg): approximately dose-proportional
- tolerability, higher doses (healthy male volunteers; single dose of 600 mg, and multiple dose of 600 mg loading followed by 100 mg): less well tolerated due to phototoxicity reactions
- tolerability, single doses (healthy male volunteers; single oral doses up to 400 mg): well tolerated
- tolerability, multiple oral doses (healthy male volunteers; up to a 200 mg loading dose followed by 50 mg maintenance dose): well tolerated
- most optimal treatment based on the efficacy and safety results ([2]; 15 mg daily): most optimal
- effects for key secondary endpoints of treatment ([2]; 6.25, 15 or 37.5 mg daily with methotrexate, p<0.05): therapeutically meaningful and statistically significant
- predicted increase of AUC0-t and Cmax for a doubling in dose ([2]; Power Model, dose range 6.25 to 37.5 mg, patients with moderate or severe RA, on average): 2 fold
- kinetics with respect to time (accumulation in plasma consistent with t1/2) ([2]; repeated oral administration): linear with respect to time

Structure (SMILES): Cc1cc2nc3c4cc(Cl)ccc4n(CC(=O)NCCN(C)C)c3nc2cc1C [262-1]
- Feed particles % <10 μm [1]: 29.0%
- % <10 μm [1]: 94.5%
- D(0.1) [1]: 0.7 μm
- D(0.5) [1]: 2.2 μm
- D(0.9) [1]: 8.4 μm

Structure (SMILES): Cc1cc2nc3c4cc(Cl)ccc4n(CC(=O)NCCN(C)C)c3nc2cc1C [146-32]
- Feed particles % <10 μm [1]: 41.9%
- % <10 μm [1]: 98.1%
- D(0.1) [1]: 0.7 μm
- D(0.5) [1]: 2.2 μm
- D(0.9) [1]: 8.2 μm

Structure (SMILES): Cc1cc2nc3c4cc(Cl)ccc4n(CC(=O)NCCN(C)C)c3nc2cc1C [compound 149]
- Feed particles % <10 μm [1]: 30.9%
- % <10 μm [1]: 99.1%
- D(0.1) [1]: 0.6 μm
- D(0.5) [1]: 2.0 μm
- D(0.9) [1]: 5.9 μm
